The values that follow come from patent US7579378B2, “Sulfonamido compounds that antagonize the vanilloid TRPV1 receptor” (Pharmeste S.R.L., priority 2004, dated 2009).

Data set [1] deals with T1, TRPV1 expressing rat trigeminal neurons (Rattus norvegicus, UniProt O35433).
T1 construct: The ganglia were then dissociated into single cells; endogenous in cells; host or cells: primary cultured trigeminal ganglia neurons from newborn rats
As to the kind of experiment: Ca2+ fluorescence measurements in cultured rat trigeminal ganglia neurons (capsaicin-induced calcium mobilisation). It is filed as cell-based. To be noted: for IC50: against capsaicin (0.1 μM)-induced calcium mobilisation, 10 minutes incubation prior to capsaicin, mean and 95% fiducial limits. As to the method: Newborn rats (2 days old) were terminally anaesthetized and decapitated. The trigeminal ganglia were removed and rapidly placed in cold phosphate buffered solution (PBS) before being transferred to collagenase/dispase (1 mg/ml dissolved in Ca^2+—Mg^2+-free PBS) for 35 min at 37° C. (Rigoni et al, 2003). After the enzymatic treatment ganglia were rinsed three times with Ca^2+—Mg^2+-free PBS and then placed in 2 ml of cold DMEM supplemented with 10% foetal bovine serum (FBS, heat inactivated), 2 mM L-glutamine, 100 u/ml penicillin and […] streptomycin. The ganglia were then dissociated into single cells by several passages through a series of syringe needles (23 G down to 25 G). Finally, the complex of medium and ganglia cells were sieved through a […] filter to remove debris and topped up with 8 ml of DMEM medium and centrifuged (200×g for 5 min). The final cell pellet was re-suspended in DMEM medium (supplemented with 100 ng/ml mouse Nerve Growth Factor (mouse-NGF-7S) and cytosine-b-D-arabino-furanoside free base (ARA-C) 2.5 mM). Cells were plated on poly-L-lysine (8.3 mM) and laminin (5 mM) coated 25 mm glass cover slips and kept for 2 to 5 days at 37° C. in a humidified incubator gassed with 5% CO2 and air. Plated neurons were loaded with Fura-2-AM-ester (3 μM) in Ca^2+ buffer solution of the following composition (mM): CaCl2 1.4, KCl 5.4, MgSO4 0.4, NaCl 135, D-glucose 5, HEPES 10 with BSA 0.1%, at pH 7.4, for 40 min at 37° C., washed twice with the Ca^2+ buffer solution and transferred to a chamber on the stage of Nikon eclipse TE300 microscope. The dye was excited at 340 and 380 nm to indicate relative [Ca^2+]i changes by the F340/F380 ratio recorded with a dynamic image analysis system (Laboratory Automation 2.0, RCS, Florence, Italy). Capsaicin (0.1 μM) and ionomycin (5 μM) were added to the chamber. A calibration curve using a buffer containing Fura-2-AM-ester and determinant concentrations of free Ca^2+ (Kudo et al., 1986) was used to convert the data obtained from F340/F380 ratio to [Ca^2+]i (nM).
The effects of all compounds were tested against capsaicin-induced calcium mobilisation. Antagonistic compounds were incubated for 10 minutes prior to the capsaicin challenge. The inhibitory effect of the TRPV1 antagonist, capsazepine, was also tested.

For data set [2], the target named is T2, TRPV1 receptor expressed in rat spinal cord (Rattus norvegicus, UniProt O35433).
T2 construct: spinal cord was removed and disrupted using a Polytron tissue homogenizer; from tissue; host or cells: rat spinal cord membranes (Sprague-Dawley)
T2 sequence (O35433 whole entry): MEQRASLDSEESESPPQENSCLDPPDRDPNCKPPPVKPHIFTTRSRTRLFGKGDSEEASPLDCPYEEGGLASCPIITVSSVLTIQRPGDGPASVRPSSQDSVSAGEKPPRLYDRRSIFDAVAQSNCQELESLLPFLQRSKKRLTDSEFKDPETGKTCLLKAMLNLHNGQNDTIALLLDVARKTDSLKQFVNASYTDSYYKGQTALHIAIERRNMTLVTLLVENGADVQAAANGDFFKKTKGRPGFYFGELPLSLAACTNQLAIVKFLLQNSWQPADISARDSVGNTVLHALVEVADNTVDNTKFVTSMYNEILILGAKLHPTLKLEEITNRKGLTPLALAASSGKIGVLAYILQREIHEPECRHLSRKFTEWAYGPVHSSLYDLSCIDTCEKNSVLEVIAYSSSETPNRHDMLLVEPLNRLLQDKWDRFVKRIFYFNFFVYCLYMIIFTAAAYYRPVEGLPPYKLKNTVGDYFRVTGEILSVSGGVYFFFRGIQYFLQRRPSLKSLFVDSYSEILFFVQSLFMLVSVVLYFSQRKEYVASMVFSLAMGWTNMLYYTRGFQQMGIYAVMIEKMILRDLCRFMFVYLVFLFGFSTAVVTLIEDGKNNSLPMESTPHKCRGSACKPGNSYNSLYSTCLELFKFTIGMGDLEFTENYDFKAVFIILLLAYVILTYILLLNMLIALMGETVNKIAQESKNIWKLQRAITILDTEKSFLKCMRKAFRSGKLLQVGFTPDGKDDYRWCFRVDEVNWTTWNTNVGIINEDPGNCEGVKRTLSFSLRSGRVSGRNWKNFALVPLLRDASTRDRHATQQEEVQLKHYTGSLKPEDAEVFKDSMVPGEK
As to the kind of experiment: [3H]-RTX competition binding assay. The note with it: for Ki: [3H]-RTX (0.4 nM) competition, rat spinal cord membranes, mean and 95% fiducial limits; for affinity for the TRPV1 receptor: in vitro, summary statement. The method, then:
Male Sprague-Dawley rats with body weight between 250 to 350 g at the time for testing were used. For binding assays rats were sacrificed by decapitation under anesthesia and spinal cord was removed and disrupted using a Polytron tissue homogenizer in ice cold buffer containing 5 mM KCl, 5.8 mM NaCl, 0.75 mM CaCl2, 2 mM MgCl2, 320 mM sucrose, 10 mM Hepes, pH 8.6 (Szallasi and Blunberg, 1992; 1993). Tissue homogenized was centrifuged at 1000×g for 10 min at 4° C. and the sumatant was centrifuged again at 35000×g for 30 min at 4° C. (Beckman Avanti J25). The pellet was resuspended in the same buffer as described above and used in binding experiments. In saturation experiments, 150 μg protein/sample from membrane suspensions were incubated with ([^3H]-Resiniferatoxin, Perkin Elmer, Boston, Mass.) [^3H]-RTX (0.003-3 nM) in the assay buffer containing 0.25 mg/ml fatty acid-free bovine serum albumin at 37° C. for 60 min. In competition experiments, the membranes were incubated at 37° C. for 60 min with [^3H]RTX (0.4 nM) and increasing concentrations of examined compounds in the range from 0.1 nM to 3 μM. Non specific binding was defined in the presence of 1 μM RTX. After incubation the reaction mixture was cooled at 0° C. and incubated with bovine α1-acid glycoprotein (200 μg per tube) for 15 min to reduce non-specific RTX binding. Membrane-bound RTX was separated from the free through the centrifugation of the samples at 18500×g for 15 min. The tip of the microcentrifuge tube containing the pellet was cut off and the radioactivity was determined by scintillation counting (Packard 2500 TR). The protein concentration was determined according to a Bio-Rad method with bovine serum albumin as a standard reference (Bradford, 1976). Saturation and competition studies were analyzed with the program Ligand (Munson and Rodbard, 1980).

In data set [3] the test system is capsaicin-induced wiping behaviour. Nature of the data set: Wiping test in rats (capsaicin-induced wiping). The format is in vivo, rat. The method, then: The irritant effect (induction of wiping movements) of capsaicin was assessed by applying capsaicin 3 μg/eye (10 μl) on the rat conjunctiva and the number of wiping movements was recorded during the 60 sec period that followed the application. In other set of experiments, rats were treated intraperitoneally with diverse doses of 14 and capsaicin-induced wiping was studied.

T1 sequence (O35433 whole entry): as above

`COc1cc(CNC(=O)CCCC/C=C/C(C)C)ccc1O` [Capsaicin, capsaicin, reference compound]: the “rat trigeminal neuronal cells showing an increase in [Ca2+]i” value in data set [1] (capsaicin 0.1 μM) is recorded as 87%.
As usually defined, the IC50 is the concentration that gives 50% inhibition. For the compound `Oc1cc2c(cc1O)CN(C(=S)NCCc1ccc(Cl)cc1)CCC2` [Capsazepine, capsazepine, reference compound], the IC50 in data set [1] was determined as 2170 nM.
The Ki is the equilibrium dissociation constant of an inhibitor or competing ligand from its target. Read a low Ki as a stronger hold on the target. As for `COc1cc(CNS(=O)(=O)c2ccc(NC(=S)NCc3ccc(C(C)(C)C)cc3)cc2)c(I)cc1O` [Compound 14, N-(4-t-butyl-benzyl)-N′-[4-(2-iodo-4-hydroxy-5-methoxy-benzyl)aminosulfonyl]phenyl thiourea], in data set [2], the Ki was 90 nM and the “affinity for the TRPV1 receptor” value is “significantly greater than that of the classic TRPV1 receptor antagonist, capsazepine”. The “inhibition of capsaicin-induced wiping behaviour” value in data set [3] (1 mg/kg intraperitoneal, 60 minutes prior to the capsaicin challenge (3 μg/eye)) was 24%. Further, the “effect on capsaicin-induced wiping behaviour” value in data set [3] (intraperitoneal, 60 minutes prior to the capsaicin challenge, diverse doses) is listed as “dose dependent reduction”. For the same compound, the IC50 in data set [1] is 60 nM.
As usually defined, the melting point is the temperature of the solid-liquid transition. `COc1cc(CNS(=O)(=O)c2ccc(NC(=S)NCc3ccc(C(F)(F)F)cc3)cc2)c(Cl)cc1O` [Compound 19, N-(4-trifluoromethyl-benzyl)-N′-[4-(2-chloro-4-hydroxy-5-methoxy-benzyl)aminosulfonyl]phenyl thiourea] yielded a melting point of 122 °C. In data set [2], the inhibition constant Ki was determined as 756 nM and the “affinity for the TRPV1 receptor” value is recorded as “high affinity”. The IC50 in data set [1] was 270 nM.
As to `COc1cc(CNS(=O)(=O)c2ccc(NC(=S)NCc3ccc(C(C)(C)C)cc3)cc2)c(Br)cc1O` [Compound 20, N-(4-t-butyl-benzyl)-N′-[4-(2-bromo-4-hydroxy-5-methoxy-benzyl)aminosulfonyl]phenyl thiourea], in data set [2], the Ki turned out to be 493 nM and the “affinity for the TRPV1 receptor” value is recorded as “high affinity”. Also, the IC50 in data set [1] stood at 212 nM.
`COc1cc(CNS(=O)(=O)c2ccc(CCNC(=S)NCc3ccc(C(C)(C)C)cc3)cc2)c(I)cc1O` [Compound 32, N-(4-t-butyl-benzyl)-N′-[4-(2-iodo-4-hydroxy-5-methoxy-benzyl)aminosulfonyl-2-phenylethyl]thiourea] gave a melting point of 195 °C.
For the compound `COc1cc(CNS(=O)(=O)c2ccc(CCNC(=S)NCc3ccc(C(F)(F)F)cc3)cc2)c(I)cc1O` [Compound 33, N-(4-trifluoromethyl-benzyl)-N′-[4-(2-iodo-4-hydroxy-5-methoxy-benzyl)aminosulfonyl-2-phenylethyl]thiourea], the melting point was 186 °C.
